Data: US7101902B2, “2-guanidinylimidazolidinedione compounds and methods of making and using thereof” (The United States of America as represented by the …, priority 2003, dated 2006)
“And” between values parts separate entries of the source, which are not always exact repeats. Identical values can stand only once. “Also recorded” adds a separate entry of the source.

Tests used:
Plasmodium yoelii (17×) = test: Sporozoite induced test in mouse (causal prophylactic activity); type: in vivo; settings: sporozoite challenged CD-1 mice; single dose 4 hours before inoculation; oral administration
Experimental: The causal prophylactic antimalarial activity of the new carbamate derivatives were assessed in a sporozoites challenged mouse model according to the following protocol and the results are shown in Table 4 and Table 5.
Each compound was ground with a mortar and pestle and suspended in 0.5% hydroxyethylcellulose and 0.1% Tween 80 for compounds to be administered PO and those given SC were suspended in peanut oil. Each compound is prepared at 3 different dose levels.
Compounds were administered either PO or SC to mice once 4 hours before inoculation of sporozoites.
Four-week-old male CD-1 mice, purchased from Charles River and weighing about 16 to about 17 grams were placed 5 per cage and allowed to acclimate for 4 days before being treated and then inoculated with sporozoites. They were fed food and water ad-lib and maintained at 76° F. with 12 hour light and 12 hour darkness. The cages and water bottles were changed biweekly. The mice are weighed on Days 0, 3 and 6 then biweekly when blood films were taken.
Plasmodium yoelii (17×) was used to infect mice that will be used to infect the mosquitoes.
Mice were given a single dose of test compound 4 hours before being inoculated intraperitoneally with 2.5×10^5 sporozoites of Plasmodium yoelii on Day 0. Whole body weights were taken on Day 0 and Day 6 then twice a week for 31 days. A blood film was taken on Day 5 and then twice a week for 31 days. Mice loosing greater than about 20% of their body weight were sacrificed. All mice alive on Day 31 with no parasites in a blood film were considered cured. Donor mice used to infect the mosquitoes were infected with 2.5×10^4 parasitized erythrocytes. The mosquitoes were allowed to feed on these malaria-infected mice on Day 4 of their infection when the parasitemia was low.
A compound was considered active against either the sporozoite or the EE stage if no parasites were found in the blood films taken on Day 5 or on subsequent blood films taken weekly for 31 days.
Mice alive on Day 31 with no parasites found in any blood films were considered cured.

[1] = Solubility and characteristics of the compounds in the dosing vehicle; type: physicochemical
P. cynomolgi sporozoites [2] = test: Oral causal prophylactic assay in Rhesus monkey (compound 3 IM; 4b and 3c PO); type: in vivo, Plasmodium cynomolgi; settings: per monkey
Experimental: To test the causal prophylactic intramuscular potency of the purified isomer of compound 3 and oral potency of two carbamate derivatives of 2-guanidinylimidazolidinedione (4b and 3c) the following assay was conducted.
Fourteen rhesus monkeys were issued.
A donor monkey was inoculated intravenously with 1.3 ml, freshly-thawed frozen infected red blood cell (DA310). When the monkey developed gametocytemia, mosquito feedings were conducted on days 15 and 16 after inoculation. The donor monkey was treated with intramuscular chloroquine hydrochloride (CQ) 10 mg/kg, once a day after the second mosquito feeding and continued for 6 days.
On day 0 of the beginning of the assay, each of the 14 monkeys was inoculated intravenously with 1-ml inoculum of suspension containing about 1.0×10^6 P. cynomolgi sporozoites harvested from Anopheles dirus mosquitoes' salivary glands previously fed on the donor monkey.
All monkeys received treatment on days −1, 0 and 1. The control monkeys (Group 1) received HECT orally and the experimental animals received testing compound intramuscularly (Groups 2 and 3) or orally (Groups 4 to 7).

P. cynomolgi sporozoites [3] = test: Causal prophylactic assay for intramuscular administration in Rhesus monkey; type: in vivo, Plasmodium cynomolgi
Experimental: The causal prophylactic antimalarial activity of the two 2-guanidinylimidazolidinedione carbamates 3c and 4b were assessed against Plasmodium cynomolgi in Rhesus monkey. Two monkeys were used in each test group. The average control animal developed parasitemia is about 10 days after inoculation of about 1×10^6 P. cynomolgi sporozoites harvested from Anopheles dirus.
In order to study the causal prophylactic activity of the 2-guanidinylimidazolidinedione compounds of the present invention, the following assay was conducted. Twelve rhesus monkeys were issued. The monkeys were randomized to 2 control animals and 5 groups of 2 experimental animals each.
A donor monkey was inoculated intravenously with 1.3 ml, freshly-thawed frozen infected red blood cells (DA310). The experiments were conducted in US Army oversea laboratory, AFRIMS, Bankoku, Thailand. When the donor monkey developed gametocytemia, mosquito feedings were conducted on days 13 and 14 after inoculation. The donor monkey was treated with intramuscular chloroquine hydrochloride (CQ) 10 mg/kg, once a day after the second mosquito feeding and continued for 7 days.
On day 0 (beginning of assay), each of the 12 monkeys was inoculated intravenously with 1-ml inoculum of suspension containing about 1.0×10^6 P. cynomolgi sporozoites harvested from Anopheles dirus mosquitoes' salivary glands previously fed on the donor monkey. See Corcoran, K D, et al. (1993) Am. J. Trop. Med. Hyg. 49:473–477, and Shanks, G D, et al. (2001) Clinical Infectious Diseases 33:1968–1974, which are herein incorporated by reference.
All monkeys received treatment on days −1, 0 and 1. The control monkeys received dimethylsulfoxide (DMSO) and the experimental animals received testing compound intramusculary.

CCOC(=O)N=C(N=C1NC(=O)C(=O)N1C(C)C)Nc1ccc(Cl)c(Cl)c1 [Compound 3a, N-(3,4-dichlorophenyl)-N′-ethoxycarbonyl-N″-(1-isopropyl-4,5-dioxo-imidazolidin-2-ylidene)-guanidine]
melting point: 257 °C
Minimum Protective Dose Against P. yoelii (Plasmodium yoelii (17×)): 2.5 mg/kg

CC(C)COC(=O)N=C(N=C1NC(=O)C(=O)N1C(C)C)Nc1ccc(Cl)c(Cl)c1 [Compound 3b, N-(3,4-dichlorophenyl)-N′-(isobutoxycarbonyl)-N″-(1-isopropyl-4,5-dioxo-imidazolidin-2-ylidene)-guanidine]
Minimum Protective Dose Against P. yoelii (Plasmodium yoelii (17×)): >40 mg/kg

CC(C)N1C(=O)C(=O)NC1=NC(=NC(=O)OC(C)(C)C)Nc1ccc(Cl)c(Cl)c1 [Compound 3c, N-(3,4-dichlorophenyl)-N′-(1-isopropyl-4,5-dioxoimidazolidin-2-ylidene)-N″-(tert-butoxycarbonyl)-guanidine]
Sediment ([1]; vehicle DMSO, dosage 10 mg/kg): None
Solubility ([1]; vehicle DMSO, dosage 10 mg/kg): Good
Sediment ([1]; vehicle DMSO, dosage 30 mg/kg): None
Solubility ([1]; vehicle DMSO, dosage 30 mg/kg): Good
Solubility ([1]; vehicle HECT, dosage 10 mg/kg): Moderate
Supernatant ([1]; vehicle HECT, dosage 10 mg/kg): Turbid
Solubility ([1]; vehicle HECT, dosage 30 mg/kg): Moderate
Supernatant ([1]; vehicle HECT, dosage 30 mg/kg): Turbid
Minimum Protective Dose Against P. yoelii (Plasmodium yoelii (17×)): 40 mg/kg
Day of Parasitemia (P. cynomolgi sporozoites [2]; 10 mg/kg PO, 10 mg/kg): 9 days and 10 days
Result (delay the parasitemia) (P. cynomolgi sporozoites [2]; 10 mg/kg PO, 10 mg/kg): 2 days and 1 days
Day of Parasitemia (P. cynomolgi sporozoites [2]; 30 mg/kg PO, 30 mg/kg): 10 days and 11 days
Result (delay the parasitemia) (P. cynomolgi sporozoites [2]; 30 mg/kg PO, 30 mg/kg): 3 days and 2 days

CCCCCCOC(=O)N=C(N=C1NC(=O)C(=O)N1C(C)C)Nc1ccc(Cl)c(Cl)c1 [Compound 3e, N-(3,4-dichlorophenyl)-N′-(1-hexyloxycarbonyl)-N″-(1-isopropyl-4,5-dioxo-imidazolidin-2-ylidene)-guanidine]
Minimum Protective Dose Against P. yoelii (Plasmodium yoelii (17×)): 40 mg/kg

C=CCCOC(=O)N=C(N=C1NC(=O)C(=O)N1C(C)C)Nc1ccc(Cl)c(Cl)c1 [Compound 3g, N-(3,4-dichlorophenyl)-N′-(3-butenyloxycarbonyl)-N″-(1-isopropyl-4,5-dioxoimidazolidin-2-ylidene)-guanidine]
Minimum Protective Dose Against P. yoelii (Plasmodium yoelii (17×)): 160 mg/kg

CC(C)N1C(=O)C(=O)NC1=NC(=NC(=O)OCCOCc1ccccc1)Nc1ccc(Cl)c(Cl)c1 [Compound 3h, N-(3,4-dichloro-phenyl)-N′-(2-benzyloxyethoxycarbonyl)-N″-(1-isopropyl-4,5-dioxo-imidazolidin-2-ylidene)-guanidine]
Minimum Protective Dose Against P. yoelii (Plasmodium yoelii (17×)): 160 mg/kg

CC(C)NC(=N)NC1=NC(=O)C(=O)N1c1ccc(Cl)c(Cl)c1 [Compound 4, N-[1-(3,4-dichlorophenyl)-4,5-dioxo-4,5-dihydro-1H-imidazol-2-yl]-N′-isopropylguanidine]
melting point: 244 °C and 245 °C
Minimum Protective Dose Against P. yoelii (Plasmodium yoelii (17×)): 5 mg/kg

CC(C)COC(=O)N=C(N=C1NC(=O)C(=O)N1c1ccc(Cl)c(Cl)c1)NC(C)C [Compound 4b, N-[1-(3,4-dichlorophenyl)-4,5-dioxo-imidazolidin-2-ylidene]-N′-isopropyl-N″-(isobutyloxycarbonyl)guanidine]
Sediment ([1]; vehicle DMSO, dosage 10 mg/kg): None
Solubility ([1]; vehicle DMSO, dosage 10 mg/kg): Good
Supernatant ([1]; vehicle DMSO, dosage 10 mg/kg): Clear
Supernatant ([1]; vehicle DMSO, dosage 30 mg/kg): Clear
Solubility ([1]; vehicle HECT, dosage 10 mg/kg): Moderate
Supernatant ([1]; vehicle HECT, dosage 10 mg/kg): Turbid
Solubility ([1]; vehicle HECT, dosage 30 mg/kg): Moderate
Supernatant ([1]; vehicle HECT, dosage 30 mg/kg): Turbid
Day of Parasitemia (P. cynomolgi sporozoites [3]; 10 mg/kg IM on days -1, 0 and 1, per monkey, 10 mg/kg): Parasitemia on day 47 and Parasite free on day 100 and 47 day and Remain parasite free
Result (causal prophylaxis = parasite free for 100 days after treatment) (P. cynomolgi sporozoites [3]; 10 mg/kg IM, 10 mg/kg): protected one monkey; also recorded: Causal prophylaxis; also recorded: Delay the parasitemia
Delay of parasitemia (P. cynomolgi sporozoites [3]; 10 mg/kg IM, the monkey not protected): 34 days
Day of Parasitemia (P. cynomolgi sporozoites [3]; 30 mg/kg IM on days -1, 0 and 1, per monkey, 30 mg/kg): stayed parasite free 100 days after treatment; also recorded: Parasite free on day 100; also recorded: Remain parasite free
Result (causal prophylaxis = parasite free for 100 days after treatment) (P. cynomolgi sporozoites [3]; 30 mg/kg IM, 30 mg/kg): protected; also recorded: Causal prophylaxis
Protective / prophylactic activity (in words) (P. cynomolgi sporozoites [3]; 10 and 30 mg/kg, intramuscular): partial to complete prophylactic activity; also recorded: protective activity
Minimum Protective Dose Against P. yoelii (Plasmodium yoelii (17×)): 2.5 mg/kg
Day of Parasitemia (P. cynomolgi sporozoites [2]; 10 mg/kg PO): 8 days
Result (delay the parasitemia) (P. cynomolgi sporozoites [2]; 10 mg/kg PO, 10 mg/kg): not protected; also recorded: No activity
Day of Parasitemia (P. cynomolgi sporozoites [2]; 30 mg/kg PO): 8 days
Result (delay the parasitemia) (P. cynomolgi sporozoites [2]; 30 mg/kg PO, 30 mg/kg): not protected; also recorded: No activity

CC(C)NC(=NC(=O)OC(C)(C)C)N=C1NC(=O)C(=O)N1c1ccc(Cl)c(Cl)c1 [Compound 4c, N-[1-(3,4-dichlorophenyl)-4,5-dioxo-imidazolidin-2-ylidene]-N′-isopropyl-N″-(tert-butoxycarbonyl)guanidine]
Minimum Protective Dose Against P. yoelii (Plasmodium yoelii (17×)): 1.25 mg/kg

CC(C)NC(=NC(=O)OCc1ccccc1)N=C1NC(=O)C(=O)N1c1ccc(Cl)c(Cl)c1 [Compound 4d, N-[1-(3,4-dichlorophenyl)-4,5-dioxo-imidazolidin-2-ylidene]-N′-isopropyl-N″-(benzyloxycarbonyl)guanidine]
melting point: 211 °C
Minimum Protective Dose Against P. yoelii (Plasmodium yoelii (17×)): 10 mg/kg

CCCCCCOC(=O)N=C(N=C1NC(=O)C(=O)N1c1ccc(Cl)c(Cl)c1)NC(C)C [Compound 4e, N-[1-(3,4-dichlorophenyl)-4,5-dioxo-imidazolidin-2-ylidene]-N′-isopropyl-N″-(1-hexyloxycarbonyl)guanidine]
Minimum Protective Dose Against P. yoelii (Plasmodium yoelii (17×)): 5 mg/kg

N=C(N=C1NC(=O)C(=O)N1c1ccc(Cl)c(Cl)c1)Nc1ccc(Cl)c(Cl)c1 [Compound 19, N-(3,4-dichlorophenyl)-N′-[1-(3,4-dichlorophenyl)-4,5-dioxo-imidazolidin-2-ylidene]-guanidine]
melting point: 220 °C

C[C@H]1[C@@H](O)O[C@@H]2O[C@@]3(C)CC[C@H]4[C@H](C)CC[C@@H]1[C@@]24OO3 [Dihyroartemisinin, reference compound]
Minimum Protective Dose Against P. yoelii (Plasmodium yoelii (17×)): 160 mg/kg

COc1cc(NC(C)CCCN)c2ncccc2c1 (centres unmarked) [Primaquine, reference compound]
Minimum Protective Dose Against P. yoelii (Plasmodium yoelii (17×)): 40 mg/kg

COc1cc(C)c2c(Oc3cccc(C(F)(F)F)c3)c(OC)cc(NC(C)CCCN)c2n1 (centres unmarked) [Tafenoguine, reference compound]
Minimum Protective Dose Against P. yoelii (Plasmodium yoelii (17×)): 2.5 mg/kg

N-(3,4-dichloro-phenyl)-N′-(5-methyl-2-oxo-1,3-dioxol-4-yl)methyl-N″-(1-isopropyl-4,5-dioxo-imidazolidin-2-ylidene)guanidine [Compound 3f]
Minimum Protective Dose Against P. yoelii (Plasmodium yoelii (17×)): >40 mg/kg

N-(3,4-dichlorophenyl)-N′-(benzyloxycarbonyl)-N″-(1-isopropyl-4,5-dioxo-imidazolidin-2-ylidene)-guanidine [Compound 3d]
Minimum Protective Dose Against P. yoelii (Plasmodium yoelii (17×)): >160 mg/kg
